target: T1, human PAH with the R408W mutation (Homo sapiens, UniProt P00439, R408W); assay: Cell Based Phenylalanine Flux Assay; details: A375 cells expressing human R408W PAH; 24 hrs compound incubation; 13C-Tyrosine by LC-MS; average where tested multiple times; read-out: AC50;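 note: after compound treatment, cells received sepiapterin plus isotope-labelled Phenylalanine for 4 hours, then labelled Tyrosine in the medium was quantified, 10-point 2-fold dilution series run in duplicate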
T1 construct: expressed in transfected cells
T1 sequence (P00439 1-452 R408W): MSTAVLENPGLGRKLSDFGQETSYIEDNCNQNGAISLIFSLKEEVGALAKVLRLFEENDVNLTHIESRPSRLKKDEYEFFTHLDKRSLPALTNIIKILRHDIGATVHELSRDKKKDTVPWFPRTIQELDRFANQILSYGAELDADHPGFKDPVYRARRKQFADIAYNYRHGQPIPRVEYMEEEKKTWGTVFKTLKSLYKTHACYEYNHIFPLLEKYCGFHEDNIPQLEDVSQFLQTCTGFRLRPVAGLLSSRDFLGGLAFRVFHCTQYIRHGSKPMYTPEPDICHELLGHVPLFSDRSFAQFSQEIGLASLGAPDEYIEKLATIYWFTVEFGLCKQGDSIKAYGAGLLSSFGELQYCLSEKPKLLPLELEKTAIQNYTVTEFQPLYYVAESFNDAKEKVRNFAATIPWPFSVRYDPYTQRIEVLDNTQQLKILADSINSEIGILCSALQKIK
Procedure: Compounds were resuspended in DMSO, and 2-fold serial dilutions were performed to generate a 10-point dose curve. Compounds were added to plated cells in a total volume of 100 µl, and a final DMSO concentration of 0.5%. Each compound was tested in duplicate. Following compound addition, cells were placed in a 5% CO2, 37° C. tissue culture incubator for 24 hrs. After the incubation period, 20 µM sepiapterin and 800 µM 13C9,15N-Phenylalanine were added. After 4 hours, cell media was removed. An aliquot of 10 µl of cell media was combined with 200 µl of extraction buffer (80% acetonitrile/20% H2O) for each well. Determination of ^13C-Tyrosine concentration was assessed by liquid chromatography mass spectrometry.
Where a compound was tested multiple times, the average value of the tests is reported.

Row | AC50 [nM] | SMILES
1 | 500 to 1000 | COc1ccc(-c2nnc(C(=O)N3CCc4[nH]cnc4[C@H]3c3cc4cccc(C(F)F)n4n3)o2)nc1 [Example 1578, (S)-(4-(7-(difluoromethyl)pyrazolo[1,5-a]pyridin-2-yl)-6,7-dihydro-1H-imidazo[4,5-c]pyridin-5(4H)-yl)(5-(5-methoxypyridin-2-yl)-1,3,4-oxadiazol-2-yl)methanone]
2 | > 5000 | COc1ccc(-c2nnc(C(=O)N3CCc4[nH]cnc4[C@@H]3c3cc4cccc(C(F)F)n4n3)o2)nc1 [Example 1579, (R)-(4-(7-(difluoromethyl)pyrazolo[1,5-a]pyridin-2-yl)-6,7-dihydro-1H-imidazo[4,5-c]pyridin-5(4H)-yl)(5-(5-methoxypyridin-2-yl)-1,3,4-oxadiazol-2-yl)methanone]
3 | < 500 | O=C(c1nnc(-c2ncccc2F)o1)N1CCc2[nH]cnc2[C@H]1c1cc2cccc(C(F)F)n2n1 [Example 1580, (S)-(4-(7-(difluoromethyl)pyrazolo[1,5-a]pyridin-2-yl)-6,7-dihydro-1H-imidazo[4,5-c]pyridin-5(4H)-yl)(5-(3-fluoropyridin-2-yl)-1,3,4-oxadiazol-2-yl)methanone]
4 | > 5000 | O=C(c1nnc(-c2ncccc2F)o1)N1CCc2[nH]cnc2[C@@H]1c1cc2cccc(C(F)F)n2n1 [Example 1581, (R)-(4-(7-(difluoromethyl)pyrazolo[1,5-a]pyridin-2-yl)-6,7-dihydro-1H-imidazo[4,5-c]pyridin-5(4H)-yl)(5-(3-fluoropyridin-2-yl)-1,3,4-oxadiazol-2-yl)methanone]
5 | 500 to 1000 | Cc1nn(C)cc1-c1nnc(C(=O)N2CCc3[nH]cnc3[C@H]2c2cc3cccc(C(F)F)n3n2)o1 [Example 1582, (S)-(4-(7-(difluoromethyl)pyrazolo[1,5-a]pyridin-2-yl)-6,7-dihydro-1H-imidazo[4,5-c]pyridin-5(4H)-yl)(5-(1,3-dimethyl-1H-pyrazol-4-yl)-1,3,4-oxadiazol-2-yl)methanone]
6 | > 5000 | Cc1nn(C)cc1-c1nnc(C(=O)N2CCc3[nH]cnc3[C@@H]2c2cc3cccc(C(F)F)n3n2)o1 [Example 1583, (R)-(4-(7-(difluoromethyl)pyrazolo[1,5-a]pyridin-2-yl)-6,7-dihydro-1H-imidazo[4,5-c]pyridin-5(4H)-yl)(5-(1,3-dimethyl-1H-pyrazol-4-yl)-1,3,4-oxadiazol-2-yl)methanone]
7 | 500 to 1000 | Cc1cnn(C)c1-c1nnc(C(=O)N2CCc3[nH]cnc3[C@H]2c2cc3cccc(C(F)F)n3n2)o1 [Example 1584, (S)-(4-(7-(difluoromethyl)pyrazolo[1,5-a]pyridin-2-yl)-6,7-dihydro-1H-imidazo[4,5-c]pyridin-5(4H)-yl)(5-(1,4-dimethyl-1H-pyrazol-5-yl)-1,3,4-oxadiazol-2-yl)methanone]
8 | > 5000 | Cc1cnn(C)c1-c1nnc(C(=O)N2CCc3[nH]cnc3[C@@H]2c2cc3cccc(C(F)F)n3n2)o1 [Example 1585, (R)-(4-(7-(difluoromethyl)pyrazolo[1,5-a]pyridin-2-yl)-6,7-dihydro-1H-imidazo[4,5-c]pyridin-5(4H)-yl)(5-(1,4-dimethyl-1H-pyrazol-5-yl)-1,3,4-oxadiazol-2-yl)methanone]
9 | > 5000 | Cc1cccn2nc([C@H]3c4nc[nH]c4CCN3c3nnc(C4CC4)o3)cc12 [Example 1588, (R)-2-cyclopropyl-5-(4-(4-methylpyrazolo[1,5-a]pyridin-2-yl)-6,7-dihydro-1H-imidazo[4,5-c]pyridin-5(4H)-yl)-1,3,4-oxadiazole]
10 | 500 to 1000 | Cc1cccn2nc([C@@H]3c4nc[nH]c4CCN3c3nnc(C4CC4)o3)cc12 [Example 1589, (S)-2-cyclopropyl-5-(4-(4-methylpyrazolo[1,5-a]pyridin-2-yl)-6,7-dihydro-1H-imidazo[4,5-c]pyridin-5(4H)-yl)-1,3,4-oxadiazole]
11 | 1000 to 5000 | c1cnc(N2CCc3[nH]cnc3[C@@H]2c2cc3ccccn3n2)nc1 [Example 1593, (R)-4-(pyrazolo[1,5-a]pyridin-2-yl)-5-(pyrimidin-2-yl)-4,5,6,7-tetrahydro-1H-imidazo[4,5-c]pyridine]
12 | < 500 | Cc1cccc(-c2nnc(C(=O)N3CCc4[nH]cnc4[C@H]3c3cc4cccc(C(F)F)n4n3)o2)n1 [Example 1594, (S)-(4-(7-(difluoromethyl)pyrazolo[1,5-a]pyridin-2-yl)-6,7-dihydro-1H-imidazo[4,5-c]pyridin-5(4H)-yl)(5-(6-methylpyridin-2-yl)-1,3,4-oxadiazol-2-yl)methanone]
13 | > 5000 | Cc1cccc(-c2nnc(C(=O)N3CCc4[nH]cnc4[C@@H]3c3cc4cccc(C(F)F)n4n3)o2)n1 [Example 1595, (R)-(4-(7-(difluoromethyl)pyrazolo[1,5-a]pyridin-2-yl)-6,7-dihydro-1H-imidazo[4,5-c]pyridin-5(4H)-yl)(5-(6-methylpyridin-2-yl)-1,3,4-oxadiazol-2-yl)methanone]
14 | < 500 | Cn1ccc(-c2ccc3c(C(=O)N4CCc5[nH]cnc5[C@H]4c4cc5c(C(F)(F)F)cccn5n4)cnn3c2)n1 [Example 1596, (S)-(6-(1-methyl-1H-pyrazol-3-yl)pyrazolo[1,5-a]pyridin-3-yl)(4-(4-(trifluoromethyl)pyrazolo[1,5-a]pyridin-2-yl)-6,7-dihydro-1H-imidazo[4,5-c]pyridin-5(4H)-yl)methanone]
15 | > 5000 | Cn1ccc(-c2ccc3c(C(=O)N4CCc5[nH]cnc5[C@@H]4c4cc5c(C(F)(F)F)cccn5n4)cnn3c2)n1 [Example 1597, (R)-(6-(1-methyl-1H-pyrazol-3-yl)pyrazolo[1,5-a)pyridin-3-yl)(4-(4-(trifluoromethyl)pyrazolo[1,5-a]pyridin-2-yl)-6,7-dihydro-1H-imidazo[4,5-c]pyridin-5(4H)-yl)methanone]
16 | 500 to 1000 | Cc1cccn2nc([C@@H]3c4nc[nH]c4CCN3C(=O)c3nnc(C4CC(F)(F)C4)o3)cc12 [Example 1598, (S)-(5-(3,3-difluorocyclobutyl)-1,3,4-oxadiazol-2-yl)(4-(4-methylpyrazolo[1,5-a]pyridin-2-yl)-6,7-dihydro-1H-imidazo[4,5-c]pyridin-5(4H)-yl)methanone]
17 | > 5000 | Cc1cccn2nc([C@H]3c4nc[nH]c4CCN3C(=O)c3nnc(C4CC(F)(F)C4)o3)cc12 [Example 1599, (R)-(5-(3,3-difluorocyclobutyl)-1,3,4-oxadiazol-2-yl)(4-(4-methylpyrazolo[1,5-a]pyridin-2-yl)-6,7-dihydro-1H-imidazo[4,5-c]pyridin-5(4H)-yl)methanone]
18 | 500 to 1000 | O=C(c1nnc(C2CC(F)(F)C2)o1)N1CCc2[nH]cnc2[C@H]1c1cc2c(C(F)(F)F)cccn2n1 [Example 1600, (S)-(5-(3,3-difluorocyclobutyl)-1,3,4-oxadiazol-2-yl)(4-(4-(trifluoromethyl)pyrazolo[1,5-a]pyridin-2-yl)-6,7-dihydro-1H-imidazo[4,5-c]pyridin-5(4H)-yl)methanone]
19 | 500 to 1000 | O=C(c1nnc(C2CC(F)(F)C2)o1)N1CCc2[nH]cnc2[C@H]1c1cc2c(C(F)F)cccn2n1 [Example 1602, (S)-(5-(3,3-difluorocyclobutyl)-1,3,4-oxadiazol-2-yl)(4-(4-(difluoromethyl)pyrazolo[1,5-a]pyridin-2-yl)-6,7-dihydro-1H-imidazo[4,5-c]pyridin-5(4H)-yl)methanone]
20 | 500 to 1000 | O=C(c1nnc(C2CC(F)(F)C2)o1)N1CCc2[nH]cnc2[C@H]1c1cc2c(F)cccn2n1 [Example 1604, (S)-(5-(3,3-difluorocyclobutyl)-1,3,4-oxadiazol-2-yl)(4-(4-fluoropyrazolo[1,5-a)pyridin-2-yl)-6,7-dihydro-1H-imidazo[4,5-c]pyridin-5(4H)-yl)methanone]
21 | > 5000 | O=C(c1nnc(C2CC(F)(F)C2)o1)N1CCc2[nH]cnc2[C@@H]1c1cc2c(F)cccn2n1 [Example 1605, (R)-(5-(3,3-difluorocyclobutyl)-1,3,4-oxadiazol-2-yl)(4-(4-fluoropyrazolo[1,5-a]pyridin-2-yl)-6,7-dihydro-1H-imidazo[4,5-c]pyridin-5(4H)-yl)methanone]
22 | 500 to 1000 | FC(F)c1cccn2nc([C@@H]3c4nc[nH]c4CCN3c3nnc(C4CC4)o3)cc12 [Example 1607, (S)-2-cyclopropyl-5-(4-(4-(difluoromethyl)pyrazolo[1,5-a]pyridin-2-yl)-6,7-dihydro-1H-imidazo[4,5-c]pyridin-5(4H)-yl)-1,3,4-oxadiazole]
23 | 500 to 1000 | Cn1nccc1-c1nnc(C(=O)N2CCc3[nH]cnc3[C@H]2c2cc3cccc(C(F)F)n3n2)o1 [Example 1608, (S)-(4-(7-(difluoromethyl)pyrazolo[1,5-a]pyridin-2-yl)-6,7-dihydro-1H-imidazo[4,5-c]pyridin-5(4H)-yl)(5-(1-methyl-1H-pyrazol-5-yl)-1,3,4-oxadiazol-2-yl)methanone]
24 | > 5000 | Cn1nccc1-c1nnc(C(=O)N2CCc3[nH]cnc3[C@@H]2c2cc3cccc(C(F)F)n3n2)o1 [Example 1609, (R)-(4-(7-(difluoromethyl)pyrazolo[1,5-a]pyridin-2-yl)-6,7-dihydro-1H-imidazo[4,5-c]pyridin-5(4H)-yl)(5-(1-methyl-1H-pyrazol-5-yl)-1,3,4-oxadiazol-2-yl)methanone]
25 | 500 to 1000 | FC(F)(F)c1cccn2nc([C@@H]3c4nc[nH]c4CCN3c3nnc(-c4ccccn4)o3)cc12 [Example 1610, (S)-2-(pyridin-2-yl)-5-(4-(4-(trifluoromethyl)pyrazolo[1,5-a]pyridin-2-yl)-6,7-dihydro-1H-imidazo[4,5-c]pyridin-5(4H)-yl)-1,3,4-oxadiazole]

From patent US20230365592A1 (Agios Pharmaceuticals, Inc., priority 2022, published 2023)
